Patent US12371428B2 (Exelixis, Inc., priority 2019, dated 2025)

What was measured:
[1] = target: Met (phospho-Met, HGF-stimulated PC-3 prostate cancer cells) (Homo sapiens (Human), UniProt P08581); test: Met autophosphorylation ELISA in PC-3 cells (Example F); type: cell-based; settings: cellular activity; Met autophosphorylation ELISA in PC-3 cells; read-out: c-Met IC50
Procedure, shortened: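 Serum-starved (3 h) PC-3 cells were treated 1 h with compounds (8-point curve, 0.3% DMSO), then stimulated with 100 ng/mL human HGF for 10 min. Lysate phospho-Met (panTyr) was measured by sandwich ELISA, normalised to DMSO and reference-inhibitor controls. IC50 came from 4-parameter logistic fit.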

[2] = target: Human MET (residues 956-1390) (Homo sapiens (Human), UniProt P08581); test: Human Met kinase assay, HTRF KinEase (Example D-2); type: biochemical; settings: protocol of Example D-2 (other compounds); read-out: c-Met IC50
Procedure, shortened: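 HTRF KinEase assay on MET residues 956-1390 (0.1 ng/well) in buffer with 5 mM MgCl2, 1 mM DTT and 1 mM MnCl2, with biotinylated peptide substrate, ATP at Km, 10 compound concentrations and 3% DMSO final, run 40 min at room temperature. The […] signal was normalized to DMSO and to 1 μM reference compound, and IC50 came from a 4-parameter logistic fit.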

[3] = target: KDR (phospho-KDR, VEGF165-stimulated HUVEC cells) (Homo sapiens (Human), UniProt P35968); test: KDR autophosphorylation ELISA in HUVEC cells (Example G); type: cell-based; settings: cellular activity; KDR autophosphorylation ELISA in HUVEC cells
Procedure, shortened: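 Read-out is phospho-KDR measured by ELISA in lysates of VEGF165-stimulated (100 ng/mL, 5 min) HUVEC that were serum-starved 24 h and then pre-exposed 1 h to compound across 8 doses in 0.3% DMSO. Unstimulated lysates defined 0% and stimulated vehicle lysates 100% activity; IC50 values come from 4-parameter logistic regression.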

[4] = target: Human MER (residues 528-999) (Homo sapiens (Human), UniProt Q12866); test: Human Mer kinase assay, HTRF KinEase (Example C-2); type: biochemical; settings: protocol of Example C-2 (other compounds)
Procedure, shortened: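 HTRF KinEase TK assay with MER 528-999 (1 ng/well) in enzymatic buffer plus 5 mM MgCl2 and 1 mM DTT, biotinylated peptide substrate and ATP at Km (40 μM), 3% DMSO final, 60 min at room temperature. Stopped with EDTA detection mix (SA-XL665, TK antibody-Eu3+), read at 665/620 nm after 60 min; IC50 from 10-point 4-parameter fit, normalized to DMSO and 1 μM reference.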

Chain of KDR (phospho-KDR, VEGF165-stimulated HUVEC cells) (P35968 20-1356): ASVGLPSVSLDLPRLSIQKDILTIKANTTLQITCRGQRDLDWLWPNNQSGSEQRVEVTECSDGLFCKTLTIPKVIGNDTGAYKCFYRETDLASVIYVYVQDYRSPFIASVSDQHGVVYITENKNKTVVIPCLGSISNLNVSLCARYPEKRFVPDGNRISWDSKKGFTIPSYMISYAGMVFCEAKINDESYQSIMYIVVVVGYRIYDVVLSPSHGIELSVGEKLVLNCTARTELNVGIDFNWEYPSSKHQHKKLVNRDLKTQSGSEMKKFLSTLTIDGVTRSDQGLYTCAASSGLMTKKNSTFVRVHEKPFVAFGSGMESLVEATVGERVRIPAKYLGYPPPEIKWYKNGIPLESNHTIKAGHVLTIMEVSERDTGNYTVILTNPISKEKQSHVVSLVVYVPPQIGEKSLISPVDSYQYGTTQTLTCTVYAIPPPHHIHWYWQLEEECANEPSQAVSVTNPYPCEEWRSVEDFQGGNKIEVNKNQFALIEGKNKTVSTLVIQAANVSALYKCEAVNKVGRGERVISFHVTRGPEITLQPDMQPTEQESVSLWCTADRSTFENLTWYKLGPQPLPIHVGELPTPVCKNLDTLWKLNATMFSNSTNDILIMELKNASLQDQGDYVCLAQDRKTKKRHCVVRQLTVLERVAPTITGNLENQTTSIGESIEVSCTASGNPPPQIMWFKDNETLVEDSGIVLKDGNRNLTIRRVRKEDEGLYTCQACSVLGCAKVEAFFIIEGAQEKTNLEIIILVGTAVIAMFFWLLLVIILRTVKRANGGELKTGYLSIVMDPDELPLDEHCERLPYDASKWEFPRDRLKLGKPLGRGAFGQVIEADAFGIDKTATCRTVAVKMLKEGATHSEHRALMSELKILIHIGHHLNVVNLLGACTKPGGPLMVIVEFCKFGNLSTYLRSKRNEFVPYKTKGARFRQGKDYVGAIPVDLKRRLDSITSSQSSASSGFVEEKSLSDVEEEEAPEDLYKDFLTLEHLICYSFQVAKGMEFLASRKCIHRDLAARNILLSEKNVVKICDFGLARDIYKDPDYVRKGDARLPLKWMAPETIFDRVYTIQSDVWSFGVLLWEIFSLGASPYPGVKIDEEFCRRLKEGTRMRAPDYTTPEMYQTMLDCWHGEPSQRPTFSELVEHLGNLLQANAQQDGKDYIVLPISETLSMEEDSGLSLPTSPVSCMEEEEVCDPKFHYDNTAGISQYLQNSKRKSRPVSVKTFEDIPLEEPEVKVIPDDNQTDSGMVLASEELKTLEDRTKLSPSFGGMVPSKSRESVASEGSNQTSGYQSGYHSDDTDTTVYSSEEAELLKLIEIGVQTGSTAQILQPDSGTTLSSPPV
Chain of Human MET (residues 956-1390) (P08581 956-1390): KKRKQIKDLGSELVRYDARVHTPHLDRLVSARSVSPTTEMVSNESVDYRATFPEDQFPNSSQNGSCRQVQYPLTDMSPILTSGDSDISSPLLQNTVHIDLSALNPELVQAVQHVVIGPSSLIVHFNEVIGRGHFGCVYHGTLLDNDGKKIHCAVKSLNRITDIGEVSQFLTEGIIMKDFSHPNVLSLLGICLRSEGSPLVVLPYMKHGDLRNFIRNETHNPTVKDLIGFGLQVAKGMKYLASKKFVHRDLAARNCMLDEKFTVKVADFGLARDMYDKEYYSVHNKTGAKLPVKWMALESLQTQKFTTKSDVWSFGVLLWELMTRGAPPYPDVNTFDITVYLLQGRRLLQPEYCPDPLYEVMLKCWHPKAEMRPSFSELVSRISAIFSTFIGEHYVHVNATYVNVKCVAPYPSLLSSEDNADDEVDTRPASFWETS
Chain of Met (phospho-Met, HGF-stimulated PC-3 prostate cancer cells) (P08581 25-1390): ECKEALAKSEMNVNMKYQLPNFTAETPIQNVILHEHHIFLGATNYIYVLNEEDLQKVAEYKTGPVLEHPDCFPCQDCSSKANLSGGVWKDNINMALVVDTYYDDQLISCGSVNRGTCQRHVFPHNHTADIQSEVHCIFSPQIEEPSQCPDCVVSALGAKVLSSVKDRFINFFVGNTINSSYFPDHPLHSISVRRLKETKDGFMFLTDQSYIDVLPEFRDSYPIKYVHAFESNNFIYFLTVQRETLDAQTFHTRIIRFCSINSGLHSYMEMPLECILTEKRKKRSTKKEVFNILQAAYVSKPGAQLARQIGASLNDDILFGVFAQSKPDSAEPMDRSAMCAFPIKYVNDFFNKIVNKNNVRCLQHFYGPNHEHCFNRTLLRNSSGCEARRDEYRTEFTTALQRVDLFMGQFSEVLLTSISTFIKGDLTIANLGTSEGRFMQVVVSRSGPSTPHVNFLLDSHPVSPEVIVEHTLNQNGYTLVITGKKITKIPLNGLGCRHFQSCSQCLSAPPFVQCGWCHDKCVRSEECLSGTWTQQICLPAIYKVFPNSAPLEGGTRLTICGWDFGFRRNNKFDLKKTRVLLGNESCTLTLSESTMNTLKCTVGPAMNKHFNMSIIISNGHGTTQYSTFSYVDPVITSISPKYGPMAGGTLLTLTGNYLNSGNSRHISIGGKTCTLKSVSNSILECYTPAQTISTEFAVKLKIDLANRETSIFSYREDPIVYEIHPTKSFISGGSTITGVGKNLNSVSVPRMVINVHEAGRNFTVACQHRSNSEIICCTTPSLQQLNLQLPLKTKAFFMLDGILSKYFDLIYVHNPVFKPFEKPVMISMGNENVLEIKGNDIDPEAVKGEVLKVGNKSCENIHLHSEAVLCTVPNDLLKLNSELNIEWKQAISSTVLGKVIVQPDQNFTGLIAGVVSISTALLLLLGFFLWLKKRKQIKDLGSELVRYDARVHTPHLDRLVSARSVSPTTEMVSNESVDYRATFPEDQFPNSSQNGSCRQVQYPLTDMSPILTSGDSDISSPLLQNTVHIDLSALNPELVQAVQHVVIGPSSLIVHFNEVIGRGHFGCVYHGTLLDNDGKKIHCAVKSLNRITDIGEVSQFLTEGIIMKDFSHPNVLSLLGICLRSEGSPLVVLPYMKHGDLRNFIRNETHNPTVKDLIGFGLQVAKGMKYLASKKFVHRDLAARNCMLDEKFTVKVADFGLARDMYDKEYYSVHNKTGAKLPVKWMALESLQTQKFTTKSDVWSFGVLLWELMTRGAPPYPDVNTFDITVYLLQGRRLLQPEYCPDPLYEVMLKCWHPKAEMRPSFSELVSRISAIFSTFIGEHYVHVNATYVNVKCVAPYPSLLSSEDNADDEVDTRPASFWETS
Chain of Human MER (residues 528-999) (Q12866 528-999): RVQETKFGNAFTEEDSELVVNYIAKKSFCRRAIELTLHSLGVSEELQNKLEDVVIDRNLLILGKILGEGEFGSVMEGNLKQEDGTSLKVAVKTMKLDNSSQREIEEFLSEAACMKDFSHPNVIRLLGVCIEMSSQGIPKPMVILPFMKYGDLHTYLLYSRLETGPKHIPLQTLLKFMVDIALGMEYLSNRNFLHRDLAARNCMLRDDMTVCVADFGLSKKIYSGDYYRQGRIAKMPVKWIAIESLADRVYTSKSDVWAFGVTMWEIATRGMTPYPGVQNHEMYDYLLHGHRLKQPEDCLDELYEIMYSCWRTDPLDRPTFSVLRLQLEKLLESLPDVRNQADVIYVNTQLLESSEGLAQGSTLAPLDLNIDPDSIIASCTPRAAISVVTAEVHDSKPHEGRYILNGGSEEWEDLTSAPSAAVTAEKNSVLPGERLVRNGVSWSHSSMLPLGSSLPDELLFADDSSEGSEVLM

Row | Compound | IC50 [1] | IC50 [2] | IC50 [3] | IC50 [4]
1 | COc1cc2nccc(Oc3ccc(NC(=O)c4cnc(C)n(-c5ccc(F)cc5)c4=O)cc3F)c2nc1OC [Compound 97, N-[4-[(6,7-Dimethoxy-1,5-naphthyridin-4-yl)oxy]-3-fluorophenyl]-1-(4-fluorophenyl)-2-methyl-6-oxopyrimidine-5-carboxamide] | < 100 nM | < 100 nM | < 100 nM | < 100 nM
2 | COc1cc2nccc(Oc3ccc(NC(=O)c4c(C)ncn(-c5ccc(F)cc5)c4=O)cc3F)c2nc1OC [Compound 98, N-[4-[(6,7-Dimethoxy-1,5-naphthyridin-4-yl)oxy]-3-fluorophenyl]-1-(4-fluorophenyl)-4-methyl-6-oxopyrimidine-5-carboxamide] | < 100 nM | < 100 nM | < 100 nM | < 100 nM
3 | COc1cc2nccc(Oc3ccc(NC(=O)c4cnc(N(C)C)n(-c5ccc(F)cc5)c4=O)cc3F)c2nc1OC [Compound 100, N-[4-[(6,7-Dimethoxy-1,5-naphthyridin-4-yl)oxy]-3-fluorophenyl]-2-(dimethylamino)-1-(4-fluorophenyl)-6-oxopyrimidine-5-carboxamide] | < 100 nM | < 100 nM | < 100 nM | < 100 nM
4 | COc1cc2nccc(Oc3ccc(NC(=O)c4c(C)nc(C)n(-c5ccc(F)cc5)c4=O)cc3F)c2nc1OC [Compound 101, N-[4-[(6,7-Dimethoxy-1,5-naphthyridin-4-yl)oxy]-3-fluorophenyl]-1-(4-fluorophenyl)-2,4-dimethyl-6-oxopyrimidine-5-carboxamide] | < 100 nM | < 100 nM | < 100 nM | < 100 nM
5 | COc1cc2nccc(Oc3ccc(NC(=O)c4c[nH]c(=O)n(-c5ccc(F)cc5)c4=O)cc3F)c2nc1OC [Compound 102, N-[4-[(6,7-Dimethoxy-1,5-naphthyridin-4-yl)oxy]-3-fluorophenyl]-3-(4-fluorophenyl)-2,4-dioxo-1H-pyrimidine-5-carboxamide] | < 100 nM | < 100 nM | < 100 nM | < 100 nM
6 | COc1ccc2c(Oc3ccc(NC(=O)c4cnc(C)c(-c5ccc(F)cc5)c4O)cc3F)ccnc2c1 [Compound 105, N-[3-Fluoro-4-(7-methoxyquinolin-4-yl)oxyphenyl]-5-(4-fluorophenyl)-4-hydroxy-6-methylpyridine-3-carboxamide] | < 100 nM | < 100 nM | < 100 nM | < 100 nM
7 | COc1ccc2c(Oc3ccc(NC(=O)c4cn(C(C)C)c(C)c(-c5ccc(F)cc5)c4=O)cc3F)ccnc2c1 [Compound 106, N-[3-Fluoro-4-(7-methoxyquinolin-4-yl)oxyphenyl]-5-(4-fluorophenyl)-6-methyl-4-oxo-1-propan-2-ylpyridine-3-carboxamide] | < 100 nM | < 100 nM | 100 to 300 nM | < 100 nM
8 | CCn1cc(C(=O)Nc2ccc(Oc3ccnc4cc(OC)ccc34)c(F)c2)c(=O)c(-c2ccc(F)cc2)c1C [Compound 107, 1-Ethyl-N-[3-fluoro-4-(7-methoxyquinolin-4-yl)oxyphenyl]-5-(4-fluorophenyl)-6-methyl-4-oxopyridine-3-carboxamide] | 100 to 300 nM | < 100 nM | 100 to 300 nM | < 100 nM
9 | COc1ccc2c(Oc3ccc(NC(=O)c4cnc(C)c(-c5ccc(F)cc5)c4O)cc3)ccnc2c1 [Compound 108, 5-(4-Fluorophenyl)-4-hydroxy-N-[4-(7-methoxyquinolin-4-yl)oxyphenyl]-6-methylpyridine-3-carboxamide] | 100 to 300 nM | < 100 nM | < 100 nM | < 100 nM
10 | COc1cc2nccc(Oc3ccc(NC(=O)c4cnc(C)c(-c5ccc(F)cc5)c4O)cc3F)c2cc1OC [Compound 109, N-[4-(6,7-Dimethoxyquinolin-4-yl)oxy-3-fluorophenyl]-5-(4-fluorophenyl)-4-hydroxy-6-methylpyridine-3-carboxamide] | < 100 nM | < 100 nM | < 100 nM | < 100 nM
11 | COc1cnc2c(Oc3ccc(NC(=O)c4cn(C)c(C)c(-c5ccc(F)cc5)c4=O)cc3)ccnc2c1 [Compound 111, 5-(4-Fluorophenyl)-N-[4-[(7-methoxy-1,5-naphthyridin-4-yl)oxy]phenyl]-1,6-dimethyl-4-oxopyridine-3-carboxamide] | 100 to 300 nM | < 100 nM | > 300 nM | < 100 nM
12 | COc1cnc2c(Oc3ccc(NC(=O)c4cn(C)cc(-c5ccc(F)cc5)c4=O)cc3F)ccnc2c1 [Compound 112, N-[3-Fluoro-4-[(7-methoxy-1,5-naphthyridin-4-yl)oxy]phenyl]-5-(4-fluorophenyl)-1-methyl-4-oxopyridine-3-carboxamide] | < 100 nM | < 100 nM | > 300 nM | < 100 nM
13 | COc1ccc2nccc(Oc3ccc(NC(=O)c4cn(C)c(C)c(-c5ccc(F)cc5)c4=O)cc3F)c2n1 [Compound 113, N-[3-Fluoro-4-[(6-methoxy-1,5-naphthyridin-4-yl)oxy]phenyl]-5-(4-fluorophenyl)-1,6-dimethyl-4-oxopyridine-3-carboxamide] | < 100 nM | 100 to 300 nM | > 300 nM | < 100 nM
14 | COc1cc2nccc(Oc3ccc(NC(=O)c4cn(C(C)C)c(C)c(-c5ccc(F)cc5)c4=O)cc3)c2nc1OC [Compound 115, N-[4-[(6,7-Dimethoxy-1,5-naphthyridin-4-yl)oxy]phenyl]-5-(4-fluorophenyl)-6-methyl-4-oxo-1-propan-2-ylpyridine-3-carboxamide] | < 100 nM | < 100 nM | > 300 nM | < 100 nM
15 | CCn1cc(C(=O)Nc2ccc(Oc3ccnc4cc(OC)c(OC)nc34)c(F)c2)c(=O)c(-c2ccc(F)cc2)c1 [Compound 116, N-[4-[(6,7-Dimethoxy-1,5-naphthyridin-4-yl)oxy]-3-fluorophenyl]-1-ethyl-5-(4-fluorophenyl)-4-oxopyridine-3-carboxamide] | < 100 nM | < 100 nM | < 100 nM | < 100 nM
16 | COc1cc2nccc(Oc3ccc(NC(=O)c4cn(CCO)cc(-c5ccc(F)cc5)c4=O)cc3F)c2nc1OC [Compound 117, N-[4-[(6,7-Dimethoxy-1,5-naphthyridin-4-yl)oxy]-3-fluorophenyl]-5-(4-fluorophenyl)-1-(2-hydroxyethyl)-4-oxopyridine-3-carboxamide] | < 100 nM | < 100 nM | < 100 nM | < 100 nM
17 | COc1cc2nccc(Oc3ccc(NC(=O)c4cncc(-c5ccc(F)cc5)c4O)cc3)c2nc1OC [Compound 118, N-[4-[(6,7-Dimethoxy-1,5-naphthyridin-4-yl)oxy]phenyl]-5-(4-fluorophenyl)-4-hydroxypyridine-3-carboxamide] | < 100 nM | < 100 nM | < 100 nM | < 100 nM
